Measurements published in paper PMC3608651, “A Broad Profile of Co-Dominant Epitopes Shapes the Peripheral Mycobacterium tuberculosis Specific CD8+ T-Cell Immune Response in South African Patients with Active Tuberculosis” (PLoS ONE, 2013).
Read-outs that look alike come from different tables or passages of the source.

Assays:
Assay type in all cases: binding
HLA-B*58:01 = HLA-B*58:01 (Homo sapiens, UniProt P01889, A329T/C349S/D201E/D98Y/E176V/E187L/E204Q/E69T/G107R/I218V/I90N/K202T/L105A/L119I/N104I/N87E/Q89R/Q94S/R106L/R155S/R180L/R86G/S101N/S121R/S35A/S48A/T118I/V127L/V306I/V36M/Y140S/Y91M); settings: duplicated experiments, positive binder >40%
HLA-A*30:02 = HLA-A*30:02 (Homo sapiens, UniProt P04439, D101N/D140H/D185E/E176R/F33S/G80R/H175R/K168Q/Q94H/R138E/R41S/V100E); settings: duplicated experiments, positive binder >40%
HLA-A*02:01 = HLA-A*02:01 (Homo sapiens, UniProt P04439, D140Y/D185E/D98H/E176V/E277Q/G131W/G231S/I119V/I121R/I166T/I218V/L300P/L318F/N151K/N90K/P208A/P217A/Q86G/Q94H/R138H/R169H/T345S)
HLA-A*30:01 = HLA-A*30:01 (Homo sapiens, UniProt P04439, D140H/D185E/E176W/F33S/G80R/H175R/K168Q/R138E/R41S); settings: duplicated experiments, positive binder >40%
HLA-C*07:01 = HLA-C*07:01 (Homo sapiens, UniProt P10321, K90N/S123Y); settings: duplicated experiments, positive binder >40%
HLA-A*68:01 = HLA-A*68:01 (Homo sapiens, UniProt P04439, A269V/D185E/E176V/E277Q/E87N/F33Y/G231S/I121M/I166T/I218V/L180W/L300P/L318F/N151K/P208A/P217A/Q86R/R169H/T345S); settings: duplicated experiments, positive binder >40%
HLA-A*24:02 = HLA-A*24:02 (Homo sapiens, UniProt P04439, D101N/D140Y/D185E/E176V/E190D/F33S/G103R/G107R/I119L/I121M/I306V/K335N/L105A/L180Q/L300P/N151K/N90K/Q86E/Q94H/R106L/R138H/R89G/T104I/T345S/V100E/W191G/Y123F)
HLA-B*07:02 = HLA-B*07:02 (Homo sapiens, UniProt P01889); settings: percent relative the binding of positive control peptide […]; duplicated experiments; positive binder >40%
[1] = percent relative the binding of positive control peptide […]
[2] = percent relative the binding of positive control peptide […], plate-bound monomer 0.5 µg/ml, duplicated experiments, positive binder >40%
[3] = percent relative the binding of positive control peptide […], duplicated experiments, positive binder >40%

Substance	Bind B*58:01 (HLA-B*58:01; [1]) [%]	Bind A*30:02 (HLA-A*30:02; [1]) [%]	Bind A*02:01 (HLA-A*02:01; [2]) [%]	Bind A*30:01 (HLA-A*30:01; [1]) [%]	Bind C*07:01 (HLA-C*07:01; [1]) [%]	Bind A*68:01 (HLA-A*68:01; [1]) [%]	Bind A*24:02 (HLA-A*24:02; [3]) [%]	Bind B*07:02 (HLA-B*07:02) [%]	Bind A*02:01 (HLA-A*02:01)	Bind B*58:01 (HLA-B*58:01; percent relative the binding of positive control peptide IAMESIVIW) [%]	Bind A*30:02 (HLA-A*30:02; percent relative the binding of positive control peptide KIQNFRVYY) [%]	Bind A*02:01 (HLA-A*02:01; percent relative the binding of positive control peptide FLPSDFFPSV, plate-bound monomer 0.5 µg/ml, duplicated experiments, positive binder >40%) [%]	Bind A*30:01 (HLA-A*30:01; percent relative the binding of positive control peptide KTKDIVNGL) [%]	Bind C*07:01 (HLA-C*07:01; percent relative the binding of positive control peptide KYFDEHYEY) [%]	Bind A*68:01 (HLA-A*68:01; percent relative the binding of positive control peptide KTGGPIYKR) [%]	Bind A*24:02 (HLA-A*24:02; percent relative the binding of positive control peptide RYLKDQQLL, duplicated experiments, positive binder >40%) [%]	Bind A*24:02 (HLA-A*24:02)
VKPTGSAAI	0	0	0	0	0	0	0	43	–	–	–	–	–	–	–	–	–
GNNSPAVYL	0	0	0	0	51	3	6	0	–	–	–	–	–	–	–	–	–
WVYCGNGTP	4	0	11	0	16	55	0	2	–	–	–	–	–	–	–	–	–
MW GPSSDPA	0	74	6	0	0	7	24	3	–	–	–	–	–	–	–	–	–
LLDGLRAQD	0	140	63	8	0	16	0	0	–	–	–	–	–	–	–	–	–
AGSSAMILA	12	0	56	0	14	2	0	10	–	–	–	–	–	–	–	–	–
SLIGLAMGD	0	47	–	0	0	0	0	3	57	–	–	–	–	–	–	–	–
KPTGSAAIG	0	0	0	0	0	0	0	51	–	–	–	–	–	–	–	–	–
AQLNAMKGD	0	56	10	0	3	0	29	0	–	–	–	–	–	–	–	–	–
FLTSELPQW	71	3	75	0	0	5	117	8	–	–	–	–	–	–	–	–	–
IPKLVANNT	16	0	0	5	0	0	0	41	–	–	–	–	–	–	–	–	–
QQWNFAGIE [Rv3875_4–12]	–	–	–	–	–	–	–	1	–	0	39	45	0	11	15	0	–
GMGPSLIGL	9	46	84	16	35	0	53	5	–	–	–	–	–	–	–	–	–
FIYAGSLSA	2	21	79	0	35	38	11	70	–	–	–	–	–	–	–	–	–
NFPPNGTHS	26	43	14	11	0	0	0	0	–	–	–	–	–	–	–	–	–
SLSALLDPS	18	3	57	2	11	0	4	1	–	–	–	–	–	–	–	–	–

Substance	Bind B*58:01 (HLA-B*58:01; [1]) [%]	Bind A*30:02 (HLA-A*30:02; [1]) [%]	Bind A*02:01 (HLA-A*02:01; [2]) [%]	Bind A*30:01 (HLA-A*30:01; [1]) [%]	Bind C*07:01 (HLA-C*07:01; [1]) [%]	Bind A*68:01 (HLA-A*68:01; [1]) [%]	Bind A*24:02 (HLA-A*24:02; [3]) [%]	Bind B*07:02 (HLA-B*07:02) [%]	Bind A*02:01 (HLA-A*02:01)	Bind B*58:01 (HLA-B*58:01; percent relative the binding of positive control peptide IAMESIVIW) [%]	Bind A*30:02 (HLA-A*30:02; percent relative the binding of positive control peptide KIQNFRVYY) [%]	Bind A*02:01 (HLA-A*02:01; percent relative the binding of positive control peptide FLPSDFFPSV, plate-bound monomer 0.5 µg/ml, duplicated experiments, positive binder >40%) [%]	Bind A*30:01 (HLA-A*30:01; percent relative the binding of positive control peptide KTKDIVNGL) [%]	Bind C*07:01 (HLA-C*07:01; percent relative the binding of positive control peptide KYFDEHYEY) [%]	Bind A*68:01 (HLA-A*68:01; percent relative the binding of positive control peptide KTGGPIYKR) [%]	Bind A*24:02 (HLA-A*24:02; percent relative the binding of positive control peptide RYLKDQQLL, duplicated experiments, positive binder >40%) [%]	Bind A*24:02 (HLA-A*24:02)
YLLDGLRAQ	0	10	111	0	0	15	0	0	–	–	–	–	–	–	–	–	–
IVMPVGGQS	0	56	44	0	0	0	0	51	–	–	–	–	–	–	–	–	–
CGNGTPNEL	0	41	20	0	28	0	2	0	–	–	–	–	–	–	–	–	–
GGHNAVFNF	52	0	40	0	22	0	34	19	–	–	–	–	–	–	–	–	–
SAAIGLSMA	5	0	67	0	0	0	0	31	–	–	–	–	–	–	–	–	–
YNAAGGHNA	46	53	16	10	12	32	0	0	–	–	–	–	–	–	–	–	–
AGGYKAADM	0	85	0	0	0	0	0	0	–	–	–	–	–	–	–	–	–
VYCGNGTPN	15	80	0	8	59	4	11	3	–	–	–	–	–	–	–	–	–
SPACGKAGC	0	0	16	0	0	0	0	77	–	–	–	–	–	–	–	–	–
AVKPTGSAA	0	7	10	0	0	0	–	82	–	–	–	–	–	–	–	–	0
VMPVGGQSS	0	12	60	0	0	0	0	0	–	–	–	–	–	–	–	–	–
AMILAAYHP	64	33	–	0	1	0	0	1	34	–	–	–	–	–	–	–	–
PSSDPAW ER	2	0	1	0	18	53	0	10	–	–	–	–	–	–	–	–	–
GSAAIGLSM	38	9	31	0	66	5	7	38	–	–	–	–	–	–	–	–	–
GTPNELGGA	0	0	49	0	0	0	0	0	–	–	–	–	–	–	–	–	–
